Laboratory results reported in ChEMBL document CHEMBL1201862, “PubChem BioAssay data set” (2004).
Calls of active or inactive are those of the source.

How the values were obtained:
[1] = target: Induced myeloid leukemia cell differentiation protein Mcl-1 (Homo sapiens, UniProt Q07820); format: functional
[2] = target: DNA dC->dU-editing enzyme APOBEC-3G (Homo sapiens, UniProt Q9HC16); test: Dose Response confirmation of small molecule APOBEC3G DNA Deaminase Inhibitors via a fluorescence-based single-stranded DNA deaminase assay. [Related pubchem assays (depositor defined):AID493012, AID493028]; format: functional
[3] = Counterscreen for activators of the function of SWI/SNF related, matrix associated, actin dependent regulator of chromatin, subfamily a, member 2 (SMARCA2, BRM): Luminescence-based cell-based high throughput dose response assay to identify non-selective compounds using the VP16 reporter assay.; format: functional
[4] = target: DNA dC->dU-editing enzyme APOBEC-3A (Homo sapiens, UniProt P31941); test: APOBEC3A DNA deaminase inhibitors, dose response, biochemical (AID 504722); format: functional
[5] = target: T1, Rac GTPase-activating protein 1 (Homo sapiens, UniProt Q9H0H5); test: MgcRacGAP GTPase-activating activity inhibitors, confirmation, biochemical, ADP Hunter fluorescence, primary and confirmatory (AID 624330); format: functional
T1 sequence (Q9H0H5 whole entry): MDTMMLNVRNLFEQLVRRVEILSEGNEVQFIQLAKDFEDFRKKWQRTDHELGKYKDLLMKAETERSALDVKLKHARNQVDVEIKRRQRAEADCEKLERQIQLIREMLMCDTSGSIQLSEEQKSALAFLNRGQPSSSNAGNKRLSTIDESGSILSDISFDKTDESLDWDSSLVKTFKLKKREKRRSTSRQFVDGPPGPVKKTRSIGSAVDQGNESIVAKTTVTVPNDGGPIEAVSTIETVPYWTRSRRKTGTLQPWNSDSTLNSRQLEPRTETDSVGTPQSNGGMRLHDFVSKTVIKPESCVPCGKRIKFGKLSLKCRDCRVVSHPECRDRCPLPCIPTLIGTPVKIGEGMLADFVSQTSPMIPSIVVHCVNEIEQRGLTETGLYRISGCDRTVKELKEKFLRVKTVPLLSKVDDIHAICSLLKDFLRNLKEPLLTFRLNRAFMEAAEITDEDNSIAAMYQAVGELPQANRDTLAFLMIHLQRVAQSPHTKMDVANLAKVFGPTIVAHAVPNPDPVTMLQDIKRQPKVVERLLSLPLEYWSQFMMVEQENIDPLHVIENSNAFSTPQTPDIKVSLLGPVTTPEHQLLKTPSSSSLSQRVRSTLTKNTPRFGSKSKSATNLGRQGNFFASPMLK

[6] = target: SWI/SNF-related matrix-associated actin-dependent regulator of chromatin subfamily A member 2 (Homo sapiens, UniProt P51531); test: Luminescence-based cell-based high throughput dose response assay to identify activators of the function of SWI/SNF related, matrix associated, actin dependent regulator of chromatin, subfamily a, member 2 (SMARCA2, BRM).; format: functional
[7] = target: T2, Mannose-6-phosphate isomerase (Homo sapiens, UniProt P34949); test: inhibitors of human PMI, primary screen, biochemical, fluorescence intensity, coupled assay (AID 1209)
T2 sequence (P34949 whole entry): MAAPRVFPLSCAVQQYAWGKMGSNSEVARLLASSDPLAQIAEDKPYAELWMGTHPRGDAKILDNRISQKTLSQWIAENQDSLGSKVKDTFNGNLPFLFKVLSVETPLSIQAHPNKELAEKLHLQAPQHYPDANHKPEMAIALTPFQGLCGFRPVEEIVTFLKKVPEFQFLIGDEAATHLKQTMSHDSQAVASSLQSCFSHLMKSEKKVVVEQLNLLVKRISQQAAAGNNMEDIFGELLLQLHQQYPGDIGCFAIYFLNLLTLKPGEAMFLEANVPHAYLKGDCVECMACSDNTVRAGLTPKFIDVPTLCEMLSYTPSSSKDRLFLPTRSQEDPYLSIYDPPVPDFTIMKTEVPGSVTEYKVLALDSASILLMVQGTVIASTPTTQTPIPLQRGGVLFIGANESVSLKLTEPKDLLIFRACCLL

[8] = target: DNA damage-inducible transcript 3 protein (Mus musculus, UniProt P35639); format: functional, Cricetulus griseus
[9] = target: T3, Short transient receptor potential channel 4 (Mus musculus, UniProt Q9QUQ5); test: mouse TRPC4 channel inhibitors, dose response, cell-based, HEK293 TRPC4/mu-opioid, Fluo-4 calcium (AID 434942); format: functional;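 further: potency of inhibitors blocking the TRPC4 calcium response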
T3 sequence (Q9QUQ5 whole entry): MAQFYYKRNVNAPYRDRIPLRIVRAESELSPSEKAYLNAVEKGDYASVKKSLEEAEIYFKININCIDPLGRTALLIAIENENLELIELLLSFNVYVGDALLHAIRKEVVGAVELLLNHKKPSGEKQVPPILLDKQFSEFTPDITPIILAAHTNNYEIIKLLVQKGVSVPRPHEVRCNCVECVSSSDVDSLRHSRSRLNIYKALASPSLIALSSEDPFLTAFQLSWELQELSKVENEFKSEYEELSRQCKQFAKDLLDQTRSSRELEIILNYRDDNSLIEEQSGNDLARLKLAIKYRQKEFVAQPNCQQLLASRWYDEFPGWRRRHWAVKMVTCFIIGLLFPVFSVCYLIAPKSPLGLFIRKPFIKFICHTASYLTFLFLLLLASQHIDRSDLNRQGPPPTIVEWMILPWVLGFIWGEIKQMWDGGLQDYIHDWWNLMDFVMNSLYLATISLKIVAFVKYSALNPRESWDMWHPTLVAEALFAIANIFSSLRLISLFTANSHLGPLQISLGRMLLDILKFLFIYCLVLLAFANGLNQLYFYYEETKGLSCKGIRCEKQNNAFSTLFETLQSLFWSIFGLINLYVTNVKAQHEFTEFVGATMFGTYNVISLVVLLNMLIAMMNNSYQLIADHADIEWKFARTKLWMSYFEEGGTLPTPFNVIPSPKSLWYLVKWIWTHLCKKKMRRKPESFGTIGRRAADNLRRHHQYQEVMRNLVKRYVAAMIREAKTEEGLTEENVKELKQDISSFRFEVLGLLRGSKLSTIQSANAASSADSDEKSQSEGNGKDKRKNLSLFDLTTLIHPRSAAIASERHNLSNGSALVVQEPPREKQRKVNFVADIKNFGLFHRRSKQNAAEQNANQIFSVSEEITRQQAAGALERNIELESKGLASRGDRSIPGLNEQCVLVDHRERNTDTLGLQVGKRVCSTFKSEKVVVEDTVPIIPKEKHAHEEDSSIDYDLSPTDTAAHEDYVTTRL

[10] = target: T2, Mannose-6-phosphate isomerase; test: human PMI inhibitors, high substrate, primary screen, biochemical, fluorescence intensity, high mannose 6-phosphate (AID 1220)
CAAX prenyl protease 2 = CAAX prenyl protease 2 (Saccharomyces cerevisiae S288c, UniProt Q03530); format: biochemical
Streptokinase A = target: T4, Streptokinase A (Streptococcus pyogenes serotype M1, UniProt P10520); test: S. pyogenes streptokinase expression inhibitors, potency, dose response, plasminogen activation absorbance, OD405 (AID 1914); format: functional, Streptococcus pyogenes M1 GAS;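 further: secreted streptokinase activity via plasminogen activation per viability signal from cell pellet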
T4 sequence (P10520 whole entry): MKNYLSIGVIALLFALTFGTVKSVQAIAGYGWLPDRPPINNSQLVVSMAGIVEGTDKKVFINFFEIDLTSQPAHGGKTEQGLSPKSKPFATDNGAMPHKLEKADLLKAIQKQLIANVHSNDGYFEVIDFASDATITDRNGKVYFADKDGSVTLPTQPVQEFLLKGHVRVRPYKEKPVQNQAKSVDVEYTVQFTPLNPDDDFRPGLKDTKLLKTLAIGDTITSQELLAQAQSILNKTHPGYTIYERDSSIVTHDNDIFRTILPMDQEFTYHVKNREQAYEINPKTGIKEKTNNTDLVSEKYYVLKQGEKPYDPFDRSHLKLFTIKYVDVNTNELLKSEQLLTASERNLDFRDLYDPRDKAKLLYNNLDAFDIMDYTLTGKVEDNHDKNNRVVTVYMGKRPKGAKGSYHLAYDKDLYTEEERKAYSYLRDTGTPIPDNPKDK

[11] = target: G-protein coupled receptor 55 (Homo sapiens, UniProt Q9Y2T6); test: GPR55 agonists via beta-arrestin recruitment, primary screen, imaging, U2OS cells, beta-arrestin-GFP redistribution (AID 1961); format: functional
Streptococcus = test: Group A Streptococcus viability loss, dose response, counter-screen for streptokinase expression inhibitor project, luminescence, BacTiterGlo (AID 1915); format: functional, organism-based;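 further: potency for reduction of bacterial viability or growth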
[12] = tested on: Streptococcus sp. 'group A'; test: growth inhibition of control SK(-) GAS strain, dose response, counter-screen for streptokinase expression inhibitor project, luminescence, kanamycin, BacTiterGlo, confirmation (AID 1900); format: functional, organism-based
[13] = Luminescence Cell-Based Dose Retest to Confirm Inhibitors of Cancer Stem Cells. [Related pubchem assays (depositor defined):AID2717, AID2721]; format: functional; settings: Homo sapiens
[14] = Luminescence Cell-Based Dose Response HTS to Identify Activators of Luciferase Translation or Activity in H4 […] Cells. [Related pubchem assays: 1829 (Project Summary), 1814 (Primary HTS)]; format: functional
H4 = test: Luminescence Cell-Based Dose Response HTS to Identify Activators of 5'UTR Stem-Loop Driven Prion Protein mRNA Translation in H4 Neuroglioblastoma Cells. [Related pubchem assays: 1829 (Project Summary), 1814 (Primary HTS)]; format: functional; settings: Homo sapiens
Troponin, cardiac muscle = Troponin, cardiac muscle (Homo sapiens, UniProt P19429+P45379+P63316); test: Fluorescence-based biochemical high throughput dose response assay for activators of the calcium sensitivity of cardiac Regulated Thin Filaments (RTF). [Related pubchem assays (depositor defined):AID493008, AID493018, AID504382, AID504383]; format: protein-complex assay
[15] = target: T5, Delta-type opioid receptor (Homo sapiens, UniProt P41143); test: HTS Image-Based Screen for Agonists of the DOR Receptor. [Related pubchem assays (depositor defined):AID1777, AID1786, AID2133]; format: functional
[16] = target: T5, Delta-type opioid receptor; test: HTS Image-Based Screen for Antagonists of the DOR Receptor. [Related pubchem assays (depositor defined):AID1777, AID1785, AID1786, AID2133]; format: functional
Beta-galactosidase [17] = target: T6, Beta-galactosidase (Escherichia coli, UniProt Q8VNN2); format: functional
Mu-type opioid receptor = Mu-type opioid receptor (Homo sapiens, UniProt P35372); test: HTS Image-Based Screen for Agonists of the MOR Receptor. [Related pubchem assays (depositor defined):AID1777, AID1785, AID1786, AID2133]; format: functional;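 further: imaging of beta-arrestin GFP recruitment into spots after receptor activation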
Beta-galactosidase [18] = target: T6, Beta-galactosidase; test: beta-galactosidase enzyme inhibitors and activators, dose response, artefact control for CCR6 antagonist project, biochemical, E. coli enzyme, set 3 (AID 504712); format: functional
[19] = target: T7, Kappa-type opioid receptor (Homo sapiens, UniProt P41145); format: functional
[20] = target: T7, Kappa-type opioid receptor; format: functional; remark: listed apart in the source
[21] = target: Lysine-specific demethylase 4C (Homo sapiens, UniProt Q9H3R0); test: GASC-1 (JMJD2C) histone demethylase inhibitors, dose response, biochemical, DELFIA europium, cherry-picked samples (AID 488835); format: functional
Lysine-specific demethylase 4C, sequence (Q9H3R0 whole entry): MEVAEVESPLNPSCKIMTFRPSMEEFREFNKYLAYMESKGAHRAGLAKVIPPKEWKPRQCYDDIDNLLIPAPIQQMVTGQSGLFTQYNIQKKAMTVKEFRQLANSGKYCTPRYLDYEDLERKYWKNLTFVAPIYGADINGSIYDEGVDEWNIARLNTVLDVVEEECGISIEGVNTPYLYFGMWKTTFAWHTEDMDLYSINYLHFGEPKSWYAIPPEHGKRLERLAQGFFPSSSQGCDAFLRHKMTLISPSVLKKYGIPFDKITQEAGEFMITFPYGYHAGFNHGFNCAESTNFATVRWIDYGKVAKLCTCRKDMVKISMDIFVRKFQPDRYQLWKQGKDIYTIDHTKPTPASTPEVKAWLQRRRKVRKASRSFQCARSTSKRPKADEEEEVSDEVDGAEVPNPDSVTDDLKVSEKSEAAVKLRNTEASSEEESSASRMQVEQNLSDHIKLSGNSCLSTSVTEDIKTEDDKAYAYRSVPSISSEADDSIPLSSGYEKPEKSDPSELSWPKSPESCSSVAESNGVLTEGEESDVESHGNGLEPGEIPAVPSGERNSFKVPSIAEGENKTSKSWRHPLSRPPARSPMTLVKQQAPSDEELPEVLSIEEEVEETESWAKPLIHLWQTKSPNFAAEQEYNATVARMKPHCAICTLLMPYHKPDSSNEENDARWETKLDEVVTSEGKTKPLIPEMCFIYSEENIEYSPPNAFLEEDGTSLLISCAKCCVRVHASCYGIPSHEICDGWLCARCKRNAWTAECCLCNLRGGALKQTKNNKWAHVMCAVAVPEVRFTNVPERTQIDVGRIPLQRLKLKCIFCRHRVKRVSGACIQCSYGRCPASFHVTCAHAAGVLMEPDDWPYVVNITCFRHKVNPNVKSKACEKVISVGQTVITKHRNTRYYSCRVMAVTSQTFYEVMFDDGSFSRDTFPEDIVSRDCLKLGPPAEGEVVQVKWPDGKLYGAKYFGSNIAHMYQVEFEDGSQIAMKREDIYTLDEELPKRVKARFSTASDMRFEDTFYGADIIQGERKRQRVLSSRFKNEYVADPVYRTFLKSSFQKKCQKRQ

T6 sequence (Q8VNN2 whole entry): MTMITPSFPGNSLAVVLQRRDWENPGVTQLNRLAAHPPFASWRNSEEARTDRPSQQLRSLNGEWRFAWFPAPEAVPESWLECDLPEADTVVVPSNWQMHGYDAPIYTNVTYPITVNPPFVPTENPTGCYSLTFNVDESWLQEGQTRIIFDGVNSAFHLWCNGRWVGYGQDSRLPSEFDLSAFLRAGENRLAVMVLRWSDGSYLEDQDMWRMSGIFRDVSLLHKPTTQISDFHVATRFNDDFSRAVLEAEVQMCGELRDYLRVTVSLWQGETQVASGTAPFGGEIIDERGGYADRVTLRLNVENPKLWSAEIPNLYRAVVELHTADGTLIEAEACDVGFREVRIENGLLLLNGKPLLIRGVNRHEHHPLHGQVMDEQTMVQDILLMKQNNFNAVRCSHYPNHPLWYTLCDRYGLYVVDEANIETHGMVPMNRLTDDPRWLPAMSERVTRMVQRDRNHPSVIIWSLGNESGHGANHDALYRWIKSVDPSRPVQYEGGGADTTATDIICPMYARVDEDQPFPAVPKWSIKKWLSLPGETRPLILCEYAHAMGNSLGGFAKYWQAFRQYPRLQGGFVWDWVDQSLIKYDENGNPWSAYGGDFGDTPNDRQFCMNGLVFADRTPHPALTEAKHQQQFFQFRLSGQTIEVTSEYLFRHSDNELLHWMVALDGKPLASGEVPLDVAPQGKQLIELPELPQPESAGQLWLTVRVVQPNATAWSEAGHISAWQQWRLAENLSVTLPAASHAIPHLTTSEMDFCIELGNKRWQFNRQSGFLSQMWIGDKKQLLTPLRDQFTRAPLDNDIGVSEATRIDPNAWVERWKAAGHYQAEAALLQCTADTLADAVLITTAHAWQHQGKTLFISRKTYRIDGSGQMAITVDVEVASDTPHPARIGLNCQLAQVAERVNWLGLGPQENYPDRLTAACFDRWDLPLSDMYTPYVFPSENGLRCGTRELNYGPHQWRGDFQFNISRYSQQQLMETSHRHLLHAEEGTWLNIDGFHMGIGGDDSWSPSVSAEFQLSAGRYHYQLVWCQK
T7 sequence (P41145 whole entry): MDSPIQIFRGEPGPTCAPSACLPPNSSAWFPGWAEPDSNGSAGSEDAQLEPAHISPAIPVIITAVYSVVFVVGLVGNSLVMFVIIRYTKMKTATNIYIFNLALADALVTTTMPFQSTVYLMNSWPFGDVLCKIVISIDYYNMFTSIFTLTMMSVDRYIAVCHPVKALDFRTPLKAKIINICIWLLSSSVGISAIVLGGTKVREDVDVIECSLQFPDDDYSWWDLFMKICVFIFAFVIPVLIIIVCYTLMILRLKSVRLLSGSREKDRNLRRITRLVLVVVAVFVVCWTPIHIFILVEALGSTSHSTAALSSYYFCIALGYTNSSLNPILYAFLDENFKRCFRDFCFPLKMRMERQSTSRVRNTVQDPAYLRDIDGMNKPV
G-protein coupled receptor 55, sequence (Q9Y2T6 whole entry): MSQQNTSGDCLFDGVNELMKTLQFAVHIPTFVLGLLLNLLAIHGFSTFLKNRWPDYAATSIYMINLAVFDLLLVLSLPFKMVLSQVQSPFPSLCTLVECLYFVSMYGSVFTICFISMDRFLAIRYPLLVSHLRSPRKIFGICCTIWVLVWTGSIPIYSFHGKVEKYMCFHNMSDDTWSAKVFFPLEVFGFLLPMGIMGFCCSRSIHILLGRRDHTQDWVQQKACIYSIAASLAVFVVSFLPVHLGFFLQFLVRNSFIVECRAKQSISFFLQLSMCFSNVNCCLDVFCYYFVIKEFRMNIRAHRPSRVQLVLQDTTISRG
T5 sequence (P41143 whole entry): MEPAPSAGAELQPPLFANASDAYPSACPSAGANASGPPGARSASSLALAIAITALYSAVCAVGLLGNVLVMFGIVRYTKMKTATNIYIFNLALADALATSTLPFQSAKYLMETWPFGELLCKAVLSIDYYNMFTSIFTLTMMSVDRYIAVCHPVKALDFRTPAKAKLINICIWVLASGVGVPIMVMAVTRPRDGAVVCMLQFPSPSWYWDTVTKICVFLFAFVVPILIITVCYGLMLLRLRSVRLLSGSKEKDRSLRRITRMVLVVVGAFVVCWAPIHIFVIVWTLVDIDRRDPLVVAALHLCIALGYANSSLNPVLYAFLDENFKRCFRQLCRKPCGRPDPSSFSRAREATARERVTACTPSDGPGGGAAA
CAAX prenyl protease 2, sequence (Q03530 whole entry): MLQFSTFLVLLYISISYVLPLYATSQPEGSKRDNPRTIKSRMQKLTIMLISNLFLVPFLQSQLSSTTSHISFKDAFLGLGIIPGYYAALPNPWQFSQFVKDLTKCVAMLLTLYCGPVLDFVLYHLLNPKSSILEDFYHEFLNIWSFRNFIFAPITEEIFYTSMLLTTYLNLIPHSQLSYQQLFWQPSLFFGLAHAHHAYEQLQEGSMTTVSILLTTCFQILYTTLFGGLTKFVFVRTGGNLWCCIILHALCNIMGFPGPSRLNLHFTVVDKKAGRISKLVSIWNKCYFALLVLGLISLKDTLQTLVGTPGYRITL
Induced myeloid leukemia cell differentiation protein Mcl-1, sequence (Q07820 whole entry): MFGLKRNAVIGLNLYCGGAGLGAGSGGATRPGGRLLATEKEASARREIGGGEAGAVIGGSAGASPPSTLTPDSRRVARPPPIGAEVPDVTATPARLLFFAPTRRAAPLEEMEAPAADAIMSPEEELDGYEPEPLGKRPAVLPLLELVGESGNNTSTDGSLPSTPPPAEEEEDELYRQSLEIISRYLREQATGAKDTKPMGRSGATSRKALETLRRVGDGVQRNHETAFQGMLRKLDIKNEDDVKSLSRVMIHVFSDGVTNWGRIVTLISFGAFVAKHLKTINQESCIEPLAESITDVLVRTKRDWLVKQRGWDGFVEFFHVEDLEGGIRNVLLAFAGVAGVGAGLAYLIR
DNA damage-inducible transcript 3 protein, sequence (P35639 whole entry): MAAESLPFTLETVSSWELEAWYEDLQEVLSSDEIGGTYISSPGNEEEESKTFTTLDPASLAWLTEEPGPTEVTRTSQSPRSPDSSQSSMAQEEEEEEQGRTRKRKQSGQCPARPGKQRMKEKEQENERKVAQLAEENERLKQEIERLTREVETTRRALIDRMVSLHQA
DNA dC->dU-editing enzyme APOBEC-3A, sequence (P31941 whole entry): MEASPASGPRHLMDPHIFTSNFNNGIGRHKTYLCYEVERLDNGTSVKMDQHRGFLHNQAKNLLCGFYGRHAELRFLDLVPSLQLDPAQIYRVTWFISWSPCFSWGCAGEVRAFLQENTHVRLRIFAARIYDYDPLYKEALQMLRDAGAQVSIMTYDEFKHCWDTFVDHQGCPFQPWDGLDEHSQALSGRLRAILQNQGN
DNA dC->dU-editing enzyme APOBEC-3G, sequence (Q9HC16 whole entry): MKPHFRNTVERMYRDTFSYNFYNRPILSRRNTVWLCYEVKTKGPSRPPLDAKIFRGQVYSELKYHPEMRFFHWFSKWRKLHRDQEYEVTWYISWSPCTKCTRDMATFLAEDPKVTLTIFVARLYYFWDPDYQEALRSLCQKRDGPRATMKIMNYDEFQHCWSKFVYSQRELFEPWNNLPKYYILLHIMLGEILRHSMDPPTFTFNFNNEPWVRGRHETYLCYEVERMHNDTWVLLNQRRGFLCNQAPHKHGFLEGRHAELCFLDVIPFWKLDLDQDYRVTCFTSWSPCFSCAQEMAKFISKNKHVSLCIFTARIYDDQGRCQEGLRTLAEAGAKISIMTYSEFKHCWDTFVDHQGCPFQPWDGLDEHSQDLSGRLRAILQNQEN
Mu-type opioid receptor, sequence (P35372 whole entry): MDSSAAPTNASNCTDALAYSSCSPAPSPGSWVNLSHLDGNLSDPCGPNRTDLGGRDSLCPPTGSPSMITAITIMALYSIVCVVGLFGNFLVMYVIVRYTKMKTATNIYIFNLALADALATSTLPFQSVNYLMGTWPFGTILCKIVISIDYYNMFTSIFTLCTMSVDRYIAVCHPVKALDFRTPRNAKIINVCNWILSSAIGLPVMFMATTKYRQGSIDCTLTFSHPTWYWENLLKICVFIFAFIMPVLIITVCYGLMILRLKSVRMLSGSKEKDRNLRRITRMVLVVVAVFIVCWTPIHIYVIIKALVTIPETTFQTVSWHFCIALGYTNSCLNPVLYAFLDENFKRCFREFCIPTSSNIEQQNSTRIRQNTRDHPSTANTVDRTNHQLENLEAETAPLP

For `CC(=O)C1=C(S(=O)(=O)c2ccc(C)cc2)CS(=O)(=O)C1`, the IC50 [1] was 10.9 µM (active), the IC50 [2] was 8.26 µM (active) and the EC50 [3] was > 91.2 µM (inactive). The IC50 [4] was > 100 µM (inactive), the IC50 [5] was 34.3 µM (active) and the EC50 [6] was > 91.2 µM (inactive). For the same compound, the IC50 [7] was 28.1 µM (active), the “Absolute IC50 (CHOP)” value [8] was 10 µM and the EC50 [9] was 4.73 µM (active).
With `OCCN(CCO)c1ccc2ccccc2c1` the IC50 [10] was > 50 µM (not active), the IC50 [5] was 56.3 µM (active) and the IC50 [7] was 21.3 µM (active). The AC50 (CAAX prenyl protease 2) was 63.8 µM (active).
For `CC(C)Cn1c(O)c(N=NC(=O)c2cccc(S(=O)(=O)N3CCCCC3)c2)c2ccccc21`, the EC50 (Streptokinase A) was > 150 µM (not active), the EC50 [11] was 4.75 µM (active) and the EC50 (Streptococcus) was 34.3 µM (active). For the same compound, the EC50 [12] was 5.53 µM (active) and the AC50 [13] was 20.5 µM (active).
For `CC(/C=N/Nc1ccc2nncn2n1)=C\c1ccccc1`, the EC50 [14] was 20.7 µM (active), the EC50 (H4) was > 120 µM (not active) and the EC50 (Troponin, cardiac muscle) was > 71.5 µM (inactive).
For `O=C(NC(=S)N1CCN(c2ccc(Cl)cc2[N+](=O)[O-])CC1)c1cccs1`, the EC50 [15] was > 32 µM (inactive), the IC50 [16] was > 32 µM (inactive) and the EC50 (Beta-galactosidase [17]) was > 31.5 µM (inactive). For the same compound, the EC50 (Mu-type opioid receptor) was > 32 µM (inactive), the EC50 (Streptococcus) was 4.3 µM (active) and the EC50 [12] was 2.08 µM (active). The IC50 (Beta-galactosidase [18]) was > 66.6 µM (inactive), the IC50 [19] was 12.3 µM (active) and the IC50 [20] was > 32 µM.
In the case of `Cc1c(C(=O)c2ccc(Cl)c(Cl)c2)cnc2cc3c(cc12)OCO3`, the EC50 [11] is reported as > 32 µM (inactive).
In the case of `O=C(NCCCNCCCNC(=O)c1ccc(/C=N/O)nc1)c1ccc(/C=N/O)nc1`, the AC50 [21] is reported as 18 µM (active).
